Measured values from patent US8440658B2, “Cyclic urea inhibitors of 11β-hydroxysteroid dehydrogenase 1” (Vitae Pharmaceuticals, Inc., priority 2007, dated 2013).

Biological target: T1, human 11β-HSD1 (Homo sapiens, UniProt P28845)
T1 construct: expressed in transfected cells; host or cells: CHO cells (microsomes)
Test: Inhibition of microsomal preparation of 11β-HSD1 (SPA, [3H]cortisone to [3H]cortisol)
Format: biochemical
Conditions: for Average % inhibition at 100 nM / inhibition at 0.1 µM: compound at 100 nM; for IC50: microsomes from CHO cells overexpressing human 11β-HSD1, 160 nM [3H]cortisone, read-out: Biological Test Example 1 (IC50 class)
Description: The inhibition of microsomal preparation of 11β-HSD1 by compounds of the invention was measured essentially as previously described (K. Solly, S. S. Mundt, H. J. Zokian, G. J. Ding, A. Hermanowski-Vosatka, B. Strulovici, and W. Zheng, High-Throughput Screening of 11-Beta-Hydroxysteroid Dehydrogenase Type 1 in Scintillation Proximity Assay Format. Assay Drug Dev Technol 3 (2005) 377-384). All reactions were carried out at room temperature in 96 well clear flexible PET Microbeta plates (PerkinElmer). The assay begins by dispensing 49 μl of substrate solution (50 mM HEPES, pH 7.4, 100 mM KCl, 5 mM NaCl, 2 mM MgCl2, 2 mM NADPH and 160 nM [^3H]cortisone (1 Ci/mmol)) and mixing in 1 μL of the test compounds in DMSO previously diluted in half-log increments (8 points) starting at 0.1 mM. After a 10 minute pre-incubation, 50 μL of enzyme solution containing microsomes isolated from CHO cells overexpressing human 11β-HSD1 (10-20 μg/ml of total protein) was added, and the plates were incubated for 90 minutes at room temperature. The reaction was stopped by adding 50 μl of the SPA beads suspension containing 10 μM 18β-glycyrrhetinic acid, 5 mg/ml protein A coated YSi SPA beads (GE Healthcare) and 3.3 μg/ml of anti-cortisol antibody (East Coast Biologics) in Superblock buffer (Bio-Rad). The plates were shaken for 120 minutes at room temperature, and the SPA signal corresponding to [^3H]cortisol was measured on a Microbeta plate reader.

T1 sequence (P28845 whole entry): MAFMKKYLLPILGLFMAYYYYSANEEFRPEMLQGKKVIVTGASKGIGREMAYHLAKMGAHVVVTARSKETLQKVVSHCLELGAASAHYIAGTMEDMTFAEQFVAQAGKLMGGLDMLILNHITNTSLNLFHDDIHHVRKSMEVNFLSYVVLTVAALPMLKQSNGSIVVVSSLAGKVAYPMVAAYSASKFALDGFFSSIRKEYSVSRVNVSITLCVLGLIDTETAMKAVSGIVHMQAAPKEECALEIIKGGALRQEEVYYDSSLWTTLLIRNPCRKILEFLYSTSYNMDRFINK

In the case of `CC(C)(C)N1CCC(CCCO)(c2ccccc2)OC1=O` (single isomer, unassigned) [EXAMPLE 8 Isomer 1, 3-tert-butyl-6-(3-hydroxypropyl)-6-phenyl-1,3-oxazinan-2-one], the “Average % inhibition at 100 nM” value (0.1 µM) is reported as 84.0% and the IC50 is reported as under 100 nM.
In the case of `CC(C)(C)N1CCC(CCCO)(c2ccccc2)OC1=O` (single isomer, unassigned) [EXAMPLE 8 Isomer 2, 3-tert-butyl-6-(3-hydroxypropyl)-6-phenyl-1,3-oxazinan-2-one], the “Average % inhibition at 100 nM” value (0.1 µM) is reported as 22.1% and the IC50 is reported as over 100 nM.
For `CC(C)(C)N1CCC(CCCO)(c2ccc(F)cc2)OC1=O` (single isomer, unassigned) [EXAMPLE 9 Isomer 1, 3-tert-butyl-6-(4-fluorophenyl)-6-(3-hydroxypropyl)-1,3-oxazinan-2-one], the “Average % inhibition at 100 nM” value (0.1 µM) was 74.7% and the IC50 was under 100 nM.
In the case of `CC(C)(C)N1CCC(CCCO)(c2ccc(F)cc2)OC1=O` (single isomer, unassigned) [EXAMPLE 9 Isomer 2, 3-tert-butyl-6-(4-fluorophenyl)-6-(3-hydroxypropyl)-1,3-oxazinan-2-one], the “Average % inhibition at 100 nM” value (0.1 µM) is reported as 25.45% and the IC50 is reported as over 100 nM.
With `C[C@H](N1CCC(CCCO)(c2ccccc2)OC1=O)C(C)(C)O` (single isomer, unassigned) [EXAMPLE 10 Isomer 1] the “Average % inhibition at 100 nM” value (0.1 µM) was 66.8% and the IC50 was under 100 nM.
`C[C@H](N1CCC(CCCO)(c2ccccc2)OC1=O)C(C)(C)O` (single isomer, unassigned) [EXAMPLE 10 Isomer 2] was tested, and the “Average % inhibition at 100 nM” value (0.1 µM) was 13.4% and the IC50 was over 100 nM.
An inhibition at 0.1 µM of 47.2% and an IC50 of over 100 nM were found for `C=CCC1(c2ccccc2)CCN([C@@H](C)C(C)(C)O)C(=O)O1` (single isomer, unassigned) [EXAMPLE 12 Isomer 1] in this work.
For `C=CCC1(c2ccccc2)CCN([C@@H](C)C(C)(C)O)C(=O)O1` (single isomer, unassigned) [EXAMPLE 12 Isomer 2], the “Average % inhibition at 100 nM” value (0.1 µM) was 53.9% and the IC50 was under 100 nM.
For `C[C@H](N1CC[C@](CCO)(c2ccc(F)cc2)OC1=O)C(C)(C)C` (single isomer, unassigned; isomer 1) [EXAMPLE 1 Isomer 1], the “Average % inhibition at 100 nM” value was 94.4% and the IC50 was under 100 nM.
`C[C@H](N1CC[C@@](CCO)(c2ccc(F)cc2)OC1=O)C(C)(C)C` (single isomer, unassigned; isomer 2) [EXAMPLE 1 Isomer 2] was tested, and the “Average % inhibition at 100 nM” value was 36.5% and the IC50 was under 100 nM.
An inhibition at 0.1 µM of 98.6% and an IC50 of under 100 nM were found for `C[C@H](N1CC[C@](CCCO)(c2ccc(F)cc2)OC1=O)C(C)(C)C` [EXAMPLE 2] in this work.
An inhibition at 0.1 µM of 94% and an IC50 of under 100 nM were found for `C[C@H](N1CC[C@](CCCO)(c2ccccc2)OC1=O)C(C)(C)C` [EXAMPLE 3 Isomer 1] in this work.
An inhibition at 0.1 µM of 58.8% and an IC50 of under 100 nM were found for `C[C@H](N1CC[C@@](CCCO)(c2ccccc2)OC1=O)C(C)(C)C` [EXAMPLE 3 Isomer 2, (S)-3-((S)-3,3-dimethylbutan-2-yl)-6-(3-hydroxypropyl)-6-phenyl-1,3-oxazinan-2-one] in this work.
An inhibition at 0.1 µM of 91.8% and an IC50 of under 100 nM were found for `C[C@H](N1CC[C@](CCC(N)=O)(c2ccc(F)cc2)OC1=O)C(C)(C)C` [EXAMPLE 4, 3-((R)-3-((S)-3,3-dimethylbutan-2-yl)-6-(4-fluorophenyl)-2-oxo-1,3-oxazinan-6-yl)propanamide] in this work.
An inhibition at 0.1 µM of 91% and an IC50 of under 100 nM were found for `C[C@H](N1CC[C@](CCNS(C)(=O)=O)(c2ccc(F)cc2)OC1=O)C(C)(C)C` [EXAMPLE 5, N-(2-((S)-3-((S)-3,3-dimethylbutan-2-yl)-6-(4-fluorophenyl)-2-oxo-1,3-oxazinan-6-yl)ethyl)methanesulfonamide] in this work.
An inhibition at 0.1 µM of 95.9% and an IC50 of under 100 nM were found for `C[C@H](N1CC[C@](CCCNS(C)(=O)=O)(c2ccc(F)cc2)OC1=O)C(C)(C)C` [EXAMPLE 6, N-(3-((R)-3-((S)-3,3-dimethylbutan-2-yl)-6-(4-fluorophenyl)-2-oxo-1,3-oxazinan-6-yl)propyl)methanesulfonamide] in this work.
An inhibition at 0.1 µM of 93.3% and an IC50 of under 100 nM were found for `C[C@H](N1CC[C@](CCO)(c2ccc(F)cc2)NC1=O)C(C)(C)C` [EXAMPLE 7, (S)-1-((S)-3,3-dimethylbutan-2-yl)-4-(4-fluorophenyl)-4-(2-hydroxyethyl)tetrahydropyrimidin-2(1H)-one] in this work.
An inhibition at 0.1 µM of 97% and an IC50 of under 100 nM were found for `C[C@H](N1CC[C@](CCCO)(c2ccc(F)cc2)NC1=O)C(C)(C)C` [EXAMPLE 11, (R)-1-((S)-3,3-dimethylbutan-2-yl)-4-(4-fluorophenyl)-4-(3-hydroxypropyl)tetrahydropyrimidin-2(1H)-one] in this work.
